Measurements taken from patent publication US8952024B2, “Herbicidal pyrimidone derivatives” (E I du Pont de Nemours and Company, priority 2009, dated 2015).

Columns and labels:
Format in all cases: in vivo
[1] = tested on: morningglory (Ipomoea spp.); test: Test A pre-/postemergence plant response
Procedure, shortened: (§1)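 Visually rated 0–100 injury (100 = complete control) versus untreated plants, ~10 days in greenhouse. Application pre- (soil spray, loam/sand) and postemergence (2–10 cm, 1–2 leaf stage), same timepoint.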

[2] = tested on: wheat (Triticum aestivum); test: Test A pre-/postemergence plant response
Procedure, shortened: as §1

[3] = tested on: large crabgrass (Digitaria sanguinalis); test: Test A pre-/postemergence plant response
Procedure, shortened: as §1

[4] = tested on: velvetleaf (Abutilon theophrasti); test: Test A pre-/postemergence plant response
Procedure, shortened: as §1

[5] = tested on: morningglory (Ipomoea coccinea); test: Test B pre-/postemergence plant response
Procedure, shortened: (§2)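 Seeds sown in loam–sand blend were treated preemergence, and plants at 2–18 cm (1- to 4-leaf stage) in peat-based medium were treated postemergence; compounds were formulated in non-phytotoxic solvent with surfactant. After 13–15 days in greenhouse, response was visually rated against controls, 0 (no effect) to 100 (complete control).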

[6] = tested on: cocklebur (Xanthium strumarium); test: Test B pre-/postemergence plant response
Procedure, shortened: as §2

[7] = tested on: goosegrass (Eleusine indica); test: Test B pre-/postemergence plant response
Procedure, shortened: as §2

[8] = tested on: pigweed (Amaranthus retroflexus); test: Test B pre-/postemergence plant response
Procedure, shortened: as §2

[9] = tested on: kochia (Kochia scoparia); test: Test B pre-/postemergence plant response
Procedure, shortened: as §2

[10] = tested on: wheat (Triticum aestivum); test: Test B pre-/postemergence plant response
Procedure, shortened: as §2

[11] = tested on: green foxtail (Setaria viridis); test: Test B pre-/postemergence plant response
Procedure, shortened: as §2

[12] = tested on: giant foxtail (Setaria faberii); test: Test B pre-/postemergence plant response
Procedure, shortened: as §2

[13] = tested on: downy bromegrass (Bromus tectorum); test: Test B pre-/postemergence plant response
Procedure, shortened: as §2

[14] = Postemergence, 125 g ai/ha, visual injury, 0 to 100 scale (0 no effect, 100 complete control), approx. ten days
[15] = Postemergence, 500 g ai/ha, 0 to 100 scale, 0 = no effect, 100 = complete control, approx. ten days
[16] = Preemergence, 125 g ai/ha, 0 to 100 scale, 0 = no effect, 100 = complete control
[17] = Preemergence, 500 g ai/ha, visual injury, 0 to 100 scale (0 no effect, 100 complete control), approx. ten days
[18] = 250 g ai/ha, Preemergence, 0 to 100 scale
[19] = Postemergence, 31 g ai/ha, scale 0 to 100 (0 no effect, 100 complete control)
[20] = Postemergence, 62 g ai/ha, scale 0 (no effect) to 100 (complete control), 13 to 15 days
[21] = Postemergence, 125 g ai/ha, visual rating after 13 to 15 days, scale 0 (no effect) to 100 (complete control)
[22] = Postemergence, 250 g ai/ha, scale 0 to 100
[23] = Preemergence, 62 g ai/ha, scale 0 to 100, 0 no effect, 100 complete control
[24] = Preemergence, 125 g ai/ha, 0 to 100 scale
[25] = Preemergence, 31 g ai/ha, scale 0 to 100 (0 no effect, 100 complete control)
[26] = Postemergence, 125 g ai/ha, 0 to 100 scale where 0 is no effect and 100 is complete control
[27] = Postemergence, 500 g ai/ha, visual injury, 0 to 100 scale (0 no effect, 100 complete control), approx. ten days
[28] = Preemergence, 500 g ai/ha, 0 to 100 scale, 0 = no effect, 100 = complete control
[29] = 16 g ai/ha, Postemergence, 0 to 100 scale
[30] = Postemergence, 31 g ai/ha, 0 to 100 scale (0 no effect, 100 complete control)
[31] = Postemergence, 125 g ai/ha, scale 0 to 100 (0 no effect, 100 complete control)

“5-[(2-hydroxy-6-oxo-1-cyclohexen-1-yl)carbonyl]-3-phenyl-2-(3-pyridinyl)-4(3H)-pyrimidone [Compound 113]” was tested, and the “Morningglory plant response rating” value [1, 14] was 100, the “Plant response rating, Morningglory” value [1, 15] was 100 and the “Plant response rating, Morningglory” value [1, 16] was 0. For the same compound, the “Plant response rating, Morningglory” value [1, 17] was 40, the “Wheat plant response rating” value [2, 14] was 0 and the “Plant response rating, Wheat” value [2, 15] was 40. The “Plant response rating, Wheat” value [2, 16] was 0, the “Plant response rating, Wheat” value [2, 17] was 0 and the “Crabgrass, Large plant response rating” value [3, 14] was 50. For the same compound, the “Plant response rating, Crabgrass, Large” value [3, 15] was 70, the “Plant response rating, Crabgrass, Large” value [3, 16] was 0 and the “Plant response rating, Crabgrass, Large” value [3, 17] was 40. The “Velvetleaf plant response rating” value [4, 14] was 100, the “Plant response rating, Velvetleaf” value [4, 15] was 100 and the “Plant response rating, Velvetleaf” value [4, 16] was 60. For the same compound, the “Plant response rating, Velvetleaf” value [4, 17] was 100, the “Plant response rating, Morningglory” value [5, 18] was 20 and the “Plant response rating, Morningglory” value [5, 19] was 15. The “Plant response rating, Morningglory” value [5, 20] was 15, the “Plant response rating, Morningglory” value [5, 21] was 15 and the “Morningglory plant response rating” value [5, 22] was 20. The “Plant response rating, Morningglory” value [5, 23] was 0, the “Morningglory plant response rating” value [5, 24] was 0 and the “Plant response rating, Cocklebur” value [6, 18] was 75. The “Plant response rating, Cocklebur” value [6, 19] was 45, the “Plant response rating, Cocklebur” value [6, 20] was 45 and the “Plant response rating, Cocklebur” value [6, 21] was 65. For the same compound, the “Cocklebur plant response rating” value [6, 22] was 70, the “Plant response rating, Cocklebur” value [6, 25] was 0 and the “Plant response rating, Cocklebur” value [6, 23] was 0. For the same compound, the “Cocklebur plant response rating” value [6, 24] was 0, the “Plant response rating, Goosegrass” value [7, 18] was 60 and the “Plant response rating, Goosegrass” value [7, 19] was 20. For the same compound, the “Plant response rating, Goosegrass” value [7, 20] was 25, the “Plant response rating, Goosegrass” value [7, 21] was 35 and the “Goosegrass plant response rating” value [7, 22] was 35. The “Plant response rating, Goosegrass” value [7, 25] was 10, the “Goosegrass plant response rating” value [7, 24] was 45 and the “Plant response rating, Pigweed” value [8, 18] was 100. The “Plant response rating, Pigweed” value [8, 19] was 75, the “Plant response rating, Pigweed” value [8, 20] was 75 and the “Plant response rating, Pigweed” value [8, 21] was 90. The “Pigweed plant response rating” value [8, 22] was 98, the “Plant response rating, Pigweed” value [8, 25] was 100 and the “Plant response rating, Pigweed” value [8, 23] was 100. For the same compound, the “Pigweed plant response rating” value [8, 24] was 100, the “Plant response rating, Kochia” value [9, 18] was 100 and the “Plant response rating, Kochia” value [9, 19] was 0. The “Plant response rating, Kochia” value [9, 20] was 45, the “Plant response rating, Kochia” value [9, 21] was 45 and the “Kochia plant response rating” value [9, 22] was 50. For the same compound, the “Plant response rating, Kochia” value [9, 25] was 15, the “Plant response rating, Kochia” value [9, 23] was 100 and the “Kochia plant response rating” value [9, 24] was 100. For the same compound, the “Plant response rating, Wheat” value [10, 18] was 0, the “Plant response rating, Wheat” value [10, 19] was 0 and the “Plant response rating, Wheat” value [10, 20] was 0. The “Plant response rating, Wheat” value [10, 21] was 10, the “Wheat plant response rating” value [10, 22] was 15 and the “Plant response rating, Wheat” value [10, 25] was 0. The “Plant response rating, Wheat” value [10, 23] was 0, the “Wheat plant response rating” value [10, 24] was 0 and the “Plant response rating, Foxtail, Green” value [11, 18] was 0. For the same compound, the “Plant response rating, Foxtail, Green” value [11, 19] was 5, the “Plant response rating, Foxtail, Green” value [11, 20] was 20 and the “Plant response rating, Foxtail, Green” value [11, 21] was 30. For the same compound, the “Foxtail, Green plant response rating” value [11, 22] was 40, the “Plant response rating, Foxtail, Green” value [11, 25] was 0 and the “Plant response rating, Foxtail, Green” value [11, 23] was 0. For the same compound, the “Foxtail, Green plant response rating” value [11, 24] was 0, the “Plant response rating, Foxtail, Giant” value [12, 18] was 25 and the “Plant response rating, Foxtail, Giant” value [12, 19] was 20. The “Plant response rating, Foxtail, Giant” value [12, 20] was 55, the “Plant response rating, Foxtail, Giant” value [12, 21] was 55 and the “Foxtail, Giant plant response rating” value [12, 22] was 60. The “Plant response rating, Foxtail, Giant” value [12, 25] was 0, the “Plant response rating, Foxtail, Giant” value [12, 23] was 0 and the “Foxtail, Giant plant response rating” value [12, 24] was 0. The “Plant response rating, Bromegrass, Downy” value [13, 18] was 0, the “Plant response rating, Bromegrass, Downy” value [13, 19] was 0 and the “Plant response rating, Bromegrass, Downy” value [13, 20] was 0. For the same compound, the “Plant response rating, Bromegrass, Downy” value [13, 21] was 5, the “Bromegrass, Downy plant response rating” value [13, 22] was 5 and the “Plant response rating, Bromegrass, Downy” value [13, 25] was 0. The “Plant response rating, Bromegrass, Downy” value [13, 23] was 0 and the “Bromegrass, Downy plant response rating” value [13, 24] was 0.

In the case of O=C1CCCC(O)=C1C(=O)c1cnc(-c2ccccc2)n(C2CC[S+]([O-])CC2)c1=O (mixture of isomers) [Compound 169, 5-[(2-hydroxy-6-oxo-1-cyclohexen-1-yl)carbonyl]-2-phenyl-3-(trans/cis-tetrahydro-1-oxido-2H-thiopyran-4-yl)-4(3H)-pyrimidinone], the “Plant response rating, Morningglory” value [1, 26] is reported as 100, the “Morningglory plant response rating” value [1, 27] is reported as 100 and the “Plant response rating, Morningglory” value [1, 16] is reported as 0. The “Plant response rating, Morningglory” value [1, 28] was 20, the “Plant response rating, Wheat” value [2, 26] was 20 and the “Wheat plant response rating” value [2, 27] was 20. The “Plant response rating, Wheat” value [2, 16] was 0, the “Plant response rating, Wheat” value [2, 28] was 0 and the “Plant response rating, Crabgrass, Large” value [3, 26] was 90. For the same compound, the “Crabgrass, Large plant response rating” value [3, 27] was 100, the “Plant response rating, Crabgrass, Large” value [3, 16] was 40 and the “Plant response rating, Crabgrass, Large” value [3, 28] was 40. The “Plant response rating, Velvetleaf” value [4, 26] was 100, the “Velvetleaf plant response rating” value [4, 27] was 100 and the “Plant response rating, Velvetleaf” value [4, 16] was 20. The “Plant response rating, Velvetleaf” value [4, 28] was 50, the “Plant response rating, Morningglory” value [5, 29] was 95 and the “Plant response rating, Morningglory” value [5, 30] was 95. The “Plant response rating, Morningglory” value [5, 31] was 100, the “Plant response rating, Cocklebur” value [6, 29] was 100 and the “Plant response rating, Cocklebur” value [6, 30] was 100. For the same compound, the “Plant response rating, Cocklebur” value [6, 31] was 100, the “Plant response rating, Goosegrass” value [7, 29] was 80 and the “Plant response rating, Goosegrass” value [7, 30] was 95. The “Plant response rating, Goosegrass” value [7, 31] was 100, the “Plant response rating, Pigweed” value [8, 29] was 90 and the “Plant response rating, Pigweed” value [8, 30] was 100. The “Plant response rating, Pigweed” value [8, 31] was 100, the “Plant response rating, Kochia” value [9, 29] was 100 and the “Plant response rating, Kochia” value [9, 30] was 100. The “Plant response rating, Kochia” value [9, 31] was 100, the “Plant response rating, Wheat” value [10, 29] was 0 and the “Plant response rating, Wheat” value [10, 30] was 0. For the same compound, the “Plant response rating, Wheat” value [10, 31] was 5, the “Plant response rating, Foxtail, Green” value [11, 29] was 45 and the “Plant response rating, Foxtail, Green” value [11, 30] was 60. The “Plant response rating, Foxtail, Green” value [11, 31] was 95, the “Plant response rating, Foxtail, Giant” value [12, 29] was 75 and the “Plant response rating, Foxtail, Giant” value [12, 30] was 95. The “Plant response rating, Foxtail, Giant” value [12, 31] was 100, the “Plant response rating, Bromegrass, Downy” value [13, 29] was 0 and the “Bromegrass, Downy plant response rating (0 to 100 scale)” value ([13]; 62 g ai/ha, postemergence, 0 is no effect, 100 is complete control, 13 to 15 days) was 40. For the same compound, the “Plant response rating, Bromegrass, Downy” value [13, 30] was 10 and the “Plant response rating, Bromegrass, Downy” value [13, 31] was 90.
